≈ marks a conversion by molar mass, not a printed value.
Experiments:
U87MG cells = test: MTT cytotoxicity assay; details: Dox concentration
Protocol: Cells were plated at a density of 1×10^4 in 96-well plates and cultured at 37° C. for 24 hours. Then the culture medium was replaced and the cells were incubated with different concentrations of Dox, Mu magento-vesicles, Dox-Mu magento-vesicles, and RGD-Dox-Mu magento-vesicles for 1 hour. The concentrations of Fe in MuMVs, Dox-MuMVs and RGD-Dox-MuMVs as well as the concentrations of Dox in free drug, Dox-MuMVs and RGD-Dox-MuMVs groups were kept constant for the purpose of comparison. Then the culture medium was replaced with fresh medium and the cells were incubated for another 12 hours, followed by the addition of 20 μL of the MTT solution (5 mg/mL). After incubation for 4 hours, culture supernatants were carefully removed and 100 μL of DMSO was added into each well to dissolve the purple precipitate. The concentration of the reduced MTT in each well was determined spectrophotometrically by subtraction of the absorbance reading at 650 nm from that measured at 570 nm using a microplate reader (SpectraMax M5). Cell viabilities were presented as the percentage of the absorbance of Dox, MuMVs, Dox-MuMVs and RGD-Dox-MuMVs treated cells to the absorbance of non-treated cells and plotted as Fe and Dox concentrations.

U87MG tumors = test: In vivo tumor suppression; set-up: species or system mice; details: without magnet; Dox-equivalent dose 5 mg/kg i.v.; over 30 days
Protocol: The therapeutic efficacy was evaluated by monitoring the tumor volume change every two days over 30 days (FIG. 61A).
The U87MG tumor-bearing mice were randomly divided into six groups with 5 mice in each group. The first group of mice received PBS, as control group; the second group was injected with Dox solution, as “Dox” group; the third group was injected with Dox-MuMVs without magnetic attraction, as “magnet- RGD-” group; the fourth group was injected with RGD-Dox-MuMVs without magnetic enrichment, as “magnet-RGD+” group; the fifth group was injected with Dox-MuMVs under magnetic attraction, as “magnet+RGD-” group; the sixth group was injected with RGD-Dox-MuMVs under magnetic attraction, as “[…]” group. All the experimental groups (2-6 groups) are dispersed in 150 μl PBS before intravenous administration with a Dox-equivalent dose of 5 mg/kg. For the groups under magnetic attraction, the magnet was applied for 1 h along with injection of therapeutic agents. […] after the corresponding treatments, the volume of tumors was measured every other day and calculated by the following equation: V=L×W^2/2. The body weight of the mice was also evaluated during this period to reveal the systemic toxicity of the delivery platform.

## COc1cccc2c1C(=O)c1c(O)c3c(c(O)c1C2=O)C[C@@](O)(C(=O)CO)C[C@@H]3O[C@H]1C[C@H](N)[C@H](O)[C@H](C)O1 [Dox, doxorubicin]
U87MG cells
  IC50: 0.47 µg/mL (≈ 0.865 µM)
U87MG tumors
  tumor growth: Minor delay in tumor growth

From patent publication US20190125672A1, “Fabrication of Magnetic Vesicles for Biomedical Imaging and Delivery” (University of Maryland, College Park, priority 2017, published 2019)
